Results: patent US7786107B2, “Modulators of muscarinic receptors” (Vertex Pharmaceuticals Incorporated, priority 2006, dated 2010)

Key:
M4 muscarinic receptor = molecular target: T1, M4 muscarinic receptor (Homo sapiens, UniProt P08173); experiment: Functional mobilization of intracellular calcium (FLIPR) in CHO cells expressing M4; assay type: cell-based; details: for EC50: CHO cells expressing M4, calcium mobilization; for Emax: CHO, 100% efficacy is the maximum response obtained with the Carbachol control
T1 construct: expressed in transfected cells; host or cells: CHO
T1 sequence (P08173 1-479): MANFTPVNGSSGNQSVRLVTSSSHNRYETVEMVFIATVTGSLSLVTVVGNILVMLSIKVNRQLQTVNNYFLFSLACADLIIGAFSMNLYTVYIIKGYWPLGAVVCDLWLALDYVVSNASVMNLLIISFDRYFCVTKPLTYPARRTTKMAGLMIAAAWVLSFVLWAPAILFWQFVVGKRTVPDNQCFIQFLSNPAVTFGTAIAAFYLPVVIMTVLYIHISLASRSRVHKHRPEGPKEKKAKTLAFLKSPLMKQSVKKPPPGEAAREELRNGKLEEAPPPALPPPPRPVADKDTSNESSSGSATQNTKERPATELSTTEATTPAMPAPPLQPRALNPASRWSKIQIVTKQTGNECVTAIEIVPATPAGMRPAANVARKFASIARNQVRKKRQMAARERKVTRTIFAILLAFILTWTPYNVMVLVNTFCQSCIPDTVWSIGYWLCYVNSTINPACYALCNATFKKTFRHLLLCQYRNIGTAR
Method: (§1) Functional Mobilization of Intracellular Calcium to Determine Muscarinic Receptor Activity:
(§2) CHO cells expressing muscarinic receptors (M1 to M5) are grown as monolayers in tissue culture flasks at 37° C. in a humidified atmosphere containing 5% CO2 and passaged every 3-5 days. The growth media is Dulbecco's modified eagles medium (DMEM, Gibco Cat#12430-054), containing 25 mM Hepes and supplemented with Fetal Bovine Serum (Hyclone, Cat#SH30071.03), 0.1 mM of MEM non-essential amino acids (GIBCO, Cat#11140-050), 1 mM MEM Sodium Pyruvate (GIBCO Cat#11360-070) and 100 units/ml of Penicillin G and 100 μg/ml of Streptomycin (GIBCO Cat#15140-122). The recombinant muscarinic receptor cell lines are grown under antibiotic pressure with media containing 25 μg/ml zeocin and 500 μg/ml G418 (MI-CHO), 4 μg/ml puromycin, 50 μg/ml zeocin and 2.5 μg/ml blasticidin (M2 and M4-CHO) or 50 μg/ml zeocin and 4 μg/ml puromycin (M3 and M5-CHO).
(§3) Cells are harvested at 80-90% confluence using Versene (GIBCO Cat#15040-066), collected by centrifugation and seeded 18-24 hours prior to running the calcium assay at a density of 5,000-10,000 cells/well in […], clear-bottomed 384-well plates (BD Biocoat, poly-D-lysine, Cat#356663). The day of the experiment, the cells are washed with a plate washer (Bioteck Instruments, ELX 405) using bath 1 buffer (140-mM NaCl, 4.5-mM KCl, 2-mM CaCl2, 1-mM MgCl2, 10-mM Hepes-Na, 10-mM Glucose, pH 7.4, with NaOH) containing 1 mM Probenecid. Next, the calcium dye Fluo-3 (25 μl well of Fluo-3 AM at 4 μM, Molecular Probes F-1241, in Bath 1 buffer containing 1 mM Probenecid) is added to the 25 μl of Bath 1 remaining in each well after the plate wash and the dye is loaded at 37° C. in the tissue culture incubator for 60-90 min. The fluorescent dye is removed using the plate washer with Bath 1 containing 1 mM Probenecid, leaving 25 μl/well of this solution after the wash. Alternatively, cells can be loaded with the calcium indicator from Molecular Devices (Calcium 3 Assay Reagents, Cat #R7181) adding 5 μl of a 5× solution dye in Bath 1 containing 1 mM Probenecid (10 ml per dye flask cat#R7182 to generate a solution 20×) to 20 μl of the same buffer. After loading for 60 min, the experiment can be run without having to remove the dye.
(§4) Compounds are prepared at a 2× fold concentration in a 96-well plate (round bottom, Costar Corning cat#3656), by reconstituting the pre-spotted compounds in bath 1 containing 1 mM probenecid. The final concentration DMSO is 0.5%, and the amount of DMSO is normalized across the assay plate. To determine an agonist action of the compounds on muscarinic receptors, the reconstituted compounds are added (25 μl compound/well) to the cell assay plate (containing 25 μl/well) using the multi-channel robotic system of the FLIPR 3 Instrument (Molecular Devices, Sunnyvale, Calif.). To determine a functional inhibitory action of the compounds on muscarinic receptors, the reconstituted compounds are added (25 μl compound/well) to the assay plate and pre-incubated for 15 min prior to adding 25 μl of Carbachol at 3× the EC80 for each muscarinic subtype. Alternatively, the compounds can be co-applied simultaneously with the agonist. In both assay modes, the fluorescence is recorded for 60 sec (excitation wavelength is […] and emission wavelength 540 nm) using the FLIPR 3 instrument.
(§5) The potency, efficacy and selectivity of the muscarinic compounds were evaluated by screening the compound activity across the whole family (M1 to M5 cells). Compounds were also screened for activity on other proteins such as other GPCRs and ion channels to determine selectivity on M4 receptors.
(§6) Examples of activities and efficacies of the muscarinic compounds of formulae (I, I-A, and I-B) on modulating M1 and M4 receptors are shown below in Table 4. […]

M1 muscarinic receptor = molecular target: T2, M1 muscarinic receptor (Homo sapiens, UniProt P11229); experiment: Functional mobilization of intracellular calcium (FLIPR) in CHO cells expressing M1; assay type: cell-based; details: for EC50: CHO cells expressing M1, calcium mobilization; for Emax: CHO, 100% efficacy is the maximum response obtained with the Carbachol control
T2 construct: expressed in transfected cells; host or cells: CHO
T2 sequence (P11229 1-460): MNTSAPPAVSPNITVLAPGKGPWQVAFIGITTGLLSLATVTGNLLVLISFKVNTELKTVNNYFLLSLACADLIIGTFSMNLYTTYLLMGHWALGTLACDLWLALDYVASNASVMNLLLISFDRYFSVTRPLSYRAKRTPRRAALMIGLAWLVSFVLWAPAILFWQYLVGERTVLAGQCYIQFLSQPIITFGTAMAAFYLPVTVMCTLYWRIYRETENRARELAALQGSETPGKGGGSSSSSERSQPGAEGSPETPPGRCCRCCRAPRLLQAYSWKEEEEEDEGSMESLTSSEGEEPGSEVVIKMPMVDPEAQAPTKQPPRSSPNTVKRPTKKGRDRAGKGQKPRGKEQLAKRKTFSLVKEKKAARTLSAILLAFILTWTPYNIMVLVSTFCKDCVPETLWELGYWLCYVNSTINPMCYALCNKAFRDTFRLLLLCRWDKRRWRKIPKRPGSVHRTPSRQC
Method: as §1, §2, §3, §4, §5, §6

CCOC(=O)N1C2CCC1CC(N1CCC3(CCC(=O)N(C)c4ccccc43)CC1)C2 (stereo not shown) [Compound 30]
EC50 (M4 muscarinic receptor): < 2000 nM
Emax (M4 muscarinic receptor): 25 to 100%
EC50 (M1 muscarinic receptor): < 2000 nM
Emax (M1 muscarinic receptor): 25 to 100%

CN(C)C(=O)N1CCCC2(CCN(CCC(C)(C)C)CC2)c2ccccc21 [Compound 31]
EC50 (M4 muscarinic receptor): < 2000 nM
Emax (M4 muscarinic receptor): 25 to 100%
EC50 (M1 muscarinic receptor): > 10000 nM
Emax (M1 muscarinic receptor): < 25%

CC(=O)N1CCCC2(CCN(CCC(C)(C)C)CC2)c2ccccc21 [Compound 32]
EC50 (M4 muscarinic receptor): < 2000 nM
Emax (M4 muscarinic receptor): 25 to 100%
EC50 (M1 muscarinic receptor): 2000 to 10000 nM
Emax (M1 muscarinic receptor): < 25%

CN(C)C(=O)N1CCCC2(CCN(C3C[C@@H]4CC[C@@H]3C4)CC2)c2ccccc21 (stereo partly shown) [Compound 33]
EC50 (M4 muscarinic receptor): > 10000 nM
Emax (M4 muscarinic receptor): < 25%
EC50 (M1 muscarinic receptor): > 10000 nM
Emax (M1 muscarinic receptor): < 25%

CC(=O)N1CCCC2(CCN(CCC(C)C)CC2)c2ccccc21 [Compound 34]
EC50 (M4 muscarinic receptor): > 10000 nM
Emax (M4 muscarinic receptor): < 25%
EC50 (M1 muscarinic receptor): > 10000 nM
Emax (M1 muscarinic receptor): < 25%

CN1C(=O)CCC2(CCN(C3C[C@@H]4CC[C@@H]3C4)CC2)c2ccccc21 (stereo partly shown) [Compound 35]
EC50 (M4 muscarinic receptor): < 2000 nM
Emax (M4 muscarinic receptor): 25 to 100%
EC50 (M1 muscarinic receptor): > 10000 nM
Emax (M1 muscarinic receptor): < 25%

CC(C)(C)CCN1CCC2(CCC(=O)Nc3ccccc32)CC1 [Compound 36, 1′-(3,3-dimethylbutyl)-3,4-dihydrospiro[benzo[b]azepine-5,4′-piperidin]-2(1H)-one]
EC50 (M4 muscarinic receptor): < 2000 nM
Emax (M4 muscarinic receptor): 25 to 100%
EC50 (M1 muscarinic receptor): < 2000 nM
Emax (M1 muscarinic receptor): 25 to 100%
